Literature values, collected in patent US20050008656A1, “Compositions and methods for an orally administered inhibitor of biting insects” (priority 2003, published 2005).

What was measured:
[1] = in vivo
biting insects = conditions: ingested
[2] = in vivo; remark: listed apart in the source

Molecule: O=C(O)CCCC[C@@H]1SC[C@@H]2NC(=O)N[C@@H]21 [Biotin]
- toxicity (in words) [1]: No toxic levels are known

Molecule: CCN(CC)C(=O)c1cccc(C)c1 [DEET, N, N-diethyl-3-methylbenzamide, reference compound]
- toxicity (in words) [1]: toxicity, including encephalopathy and seizures

Molecule: O=C(O)c1cccnc1 [Nicotinic acid]
- dose above which flushing by dilating the blood vessels occurs [1]: > 200 mg

Molecule: CC1CCC(C(C)(C)O)C(O)C1 (stereo not shown) [PMD, p-menthane-3,8-diol, reference compound]
- eye irritation [1]: significant eye irritation

Molecule: C/C=C/C=C/C(=O)O [Sorbic acid]
- toxicity (in words) [1]: non-toxic even when taken in large quantities

Molecule: Cc1ncc(CO)c(CO)c1O [Vitamin B6, Pyridoxine]
- dosage above which neurological damage may be caused [1]: > 2,000 mg per day

Molecule: C[N+](C)(C)CCO [choline]
- maximum level set for safety [1]: 3.5 g/day

Molecule: O[C@H]1[C@H](O)[C@@H](O)[C@H](O)[C@@H](O)[C@H]1O [inositol]
- toxicity (in words) [1]: No toxic effects known

Molecule: Cc1ncc(C[n+]2csc(CCO)c2C)c(N)n1 [thiamine]
- effectiveness at inhibiting insects from biting (biting insects): not effective

Molecule: Cyanocobalamin [B12]
- time needed to be absorbed [2]: ~3 h
